Experimental findings from patent US20100028465A1, “COMPOSITION FOR AMELIORATING CEREBRAL FUNCTION” (priority 2007, published 2010) are described below.

For test [1], the system named is intracerebral monoamines: norepinephrine (NE), 5-hydroxyindole acetic acid (5-HIAA). In words: Monoamine content in cerebral cortex and hippocampus of memory disorder model rats (HPLC-ECD). It is filed as in vivo, rat. The note with it: 1 mg/kg/day oral, day 14. Here is the method:
Then, the increase and decrease in the concentrations of those intracerebral substances in rats of each group in Example 2 were measured.
That is, the brains of the memory disorder model rats prepared in Example 2 were extirpated and the contents of the monoamines in the cerebral cortex and hippocampus were measured.
On day 14 after administration, 5 rats each in 5 groups of the ibotenic acid-untreated group, non-administration control group, low dose ASL group, high dose ASL group, and positive control group in Example 2 were decapitated with a decapitation machine and the brains were taken out. The brains were put in an ice-cold physiological saline (Otsuka Pharmaceutical Co., Ltd.). Next, the brains were taken out and the cerebral cortex and hippocampus were then taken from the divided brains and the contents of the monoamines and a metabolite thereof were measured. The measurement method is shown in (a) to (c) below.
0.2 N […] solution was added to a brain sample in a container, and thereafter, an internal standard solution was added thereto, followed by homogenizing with a homogenizer. After being ice-cooled for 60 minutes or more, the resultant was centrifuged with a refrigerated centrifuge (about 4° C., 13,800 rpm, 5 minutes), and the supernatant was used as a measurement sample.
Mobile phase: a mixture containing 0.1 mol/Lacetic acid-citric acid buffer (pH 3.5), methanol, 100 mg/ml sodium 1-octane sulfonate solution, and 5 mg/ml EDTA·2·Na solution at a ratio of 830:170:1.85:1

In test [2] the test system is memory disorder model rats with defect in the cholinergic neuron (ibotenic acid). In words: Morris water maze test (acquisition and probe trials) in memory disorder model rats. Type of test: in vivo, rat.
Test [3] concerns PC-12 cell. In words: Neurite extension / differentiation of PC-12 cell (differentiated cell ratio). It is filed as cell-based. The settings on record: Example 6, non-addition 9.85. The source says:
Regarding three fractions purified in Example 4, i.e. the fraction 1 (containing N-acylsphinganine), the fraction 2 (containing the hopanoids), and the fraction 3 (containing sphinganine and the amino lipids), the absence or presence of an action of extending and differentiating the neurite as a neurotrophic factor-like action was confirmed using PC-12 cell as a neural model cell.
Note that, in the same manner as in Example 4, 10 g of the alkali-stable lipid was loaded into a silica gel column equilibrated with chloroform. The column was washed with a solvent prepared by mixing chloroform and acetic acid at a volume ratio of 100:1, and eluted with a solvent having a ratio of chloroform to methanol of 2:1, whereby a fraction containing all of the constituent lipids of the fraction 1, fraction 2, and fraction 3 was prepared. The fraction was used as an alkali-stable lipid fraction not containing a fatty acid. Then, the presence or the absence of the action of extending and differentiating the neurite was confirmed similarly.
PC-12 cell (RCB0009) purchased from RIKEN BIORESOURCE CENTER was used. […]
After that, the resultant was cultured at 37° C. and under 5% CO2 for 48 hours. […] The total number of cells and the number of the differentiated cells in the viewing area were counted. […] Then, the average of 10 photographs in which the numbers were counted was calculated. […]

“Also recorded” adds a separate entry of the source.

Take `Cl.Nc1c2c(nc3ccccc13)CCCC2` [positive control, 9-amino-1,2,3,4-tetrahydroacridine hydrochloride]: the “5-HIAA content in hippocampus” value in test [1] is “increasing tendencies”. Moreover, in test [1] (hydrochloride), the “5-HIAA content in cerebral cortex” value was “increasing tendencies; also recorded: recovered to the level close to those of the ibotenic acid-untreated group”, the “NE content in cerebral cortex” value is listed as “increasing tendencies; also recorded: recovered to the level close to those of the ibotenic acid-untreated group” and the “NE content in hippocampus” value is on record as “increasing tendencies; also recorded: recovered to the level close to that of the ibotenic acid-untreated group”. Further, the “escape latency in acquisition trials vs non-administration control group” value in test [2] (1 mg per 1 kg rat weight per day, oral, trials day 10 to 13) is given as “tended to be short”. In addition, the “escape latency in the seventh trial vs non-administration control group (Steel's test, p<0.05)” value in test [2] (1 mg/kg/day oral) is recorded as “no significant difference”. Also, the “retention time in the fourth quadrant in probe trial” value in test [2] (1 mg/kg/day oral, day 14) is listed as “did not tend to be long”. In test [2] (1 mg/kg/day oral, day 14, p<0.05 Steel's test), the “number of crossings of platform location in probe trial vs non-administration control group” value is “significant increase”.
Turning to `CCCCCCCCCCCCCCC[C@@H](O)[C@H](CO)NC(=O)C(O)CCCCCCCCCCCCCC` (stereo partly shown) [N-2′-hydroxypalmitoyl-sphinganine], the results for the “Differentiated cell ratio (%) of PC-12 cell 48 hours after addition” value in test [3] (addition concentration 5 μg/ml) and in test [3] (addition concentration 25 μg/ml) were 19.49% and 17.44%, respectively.
